Reference: patent publication US12208122B2, “Methods of treating bleeding in a subject treated with an antiplatelet agent” (Cellphire, Inc., priority 2019, dated 2025)
Read-outs that look alike come from different tables or passages of the source. Where a SMILES comes first, the peptide text is derived from it. Bridges are numbered along the chain shown (N, C = ends). [ ]: non-standard residue; d: D form. hArg = N=C(N)NCCCC[C@H](N)C(=O)O; Mpa = O=C(O)CCS

Tests used:
[1] = system: platelets (platelet rich plasma); assay: Transmission light aggregometry, arachidonic acid-induced platelet aggregation in PRP; type: cell-based, human
Source text: (§1) Platelets will aggregate with collagen and arachidonic acid stimulation. […] The PL chip system on the T-TAS® was used to emulate in vitro platelet binding and aggregation due to the exposure of collagen in the vasculature under shear conditions.
Plasma samples with platelet or thrombosomes or combination of both are loaded into cuvettes and placed into the aggregometry chambers. The chambers warm the sample and provide constant stirring. The initiation of aggregation can be done by multiple types of […] agents not limited to thrombin, ADP, collagen and any agent known to stimulate platelet aggregation. […] The instrument begins the assay by first recording the light transmission previous to stimulation for 2 minutes. The stimulant of interest is then introduced by the technician and the change in light transmission is recorded over time. The increase in light transmission corresponds to increase in platelet aggregation.
Platelet rich plasma was taken from subject on 800 mg ibuprofen.

whole blood [2] = assay: T-TAS PL chip (collagen only) thrombus formation, whole blood; type: cell-based, human; details: whole blood with 100 and 500 μM aspirin; FIG. 17
Source text: (§2) In the Total Thrombus-formation Analysis System (T-TAS®, FUJIMORI KOGYO CO., LTD), the sample is forced through collagen-coated microchannels using mineral oil. Changes in pressure are used to assess thrombus formation. The Occlusion Start Time is time it takes to reach 10 kPa, and the Occlusion Time=time it takes to each Δ80 kPa using an AR chip (e.g., Zacros Item No, TC0101). According to the manufacturer, an AR chip can be used for analyzing the formation of a mixed white thrombus consisting chiefly of fibrin and activated platelets. It has a flow path (300 μm wide by 50 μm high) coated with collagen and tissue factors and can be used to analyze the clotting function and platelet function. In comparison, a PL chip can be used for analyzing the formation of a platelet thrombus consisting chiefly of activated platelets. A PL chip has a flow path coated with collagen only and can be used to analyze the platelet function.
as §1
Evaluation by T-TAS® Using a PL Chip
PL chips are run similarly to AR chips, but this chip is only coated with collagen alone.

platelet rich plasma [3] = assay: T-TAS AR chip (collagen and tissue factor) occlusion under shear, platelet rich plasma; type: cell-based, human
[4] = system: platelets (platelet rich plasma); assay: Transmission light aggregometry, collagen-induced platelet aggregation in PRP; type: cell-based, human
Experimental: The aggregation of platelets (in platelet rich plasma) was evaluated using transmission light aggregrometry. […] (FIG. 8).
as §1
(§3) Plasma samples with platelet or thrombosomes or combination of both are loaded into cuvettes and placed into the aggregometry chambers. The chambers warm the sample and provide constant stirring. The initiation of aggregation can be done by multiple types of […] agents not limited to thrombin, ADP, collagen and any agent known to stimulate platelet aggregation. The samples can also have been taken as ex-vivo, or in-vitro supplemented with inhibitors. The instrument begins the assay by first recording the light transmission previous to stimulation for 2 minutes. The stimulant of interest is then introduced by the technician and the change in light transmission is recorded over time. The increase in light transmission corresponds to increase in platelet aggregation.

platelet rich plasma [5] = assay: T-TAS AR chip (collagen and tissue factor) occlusion under shear, platelet rich plasma; type: cell-based, human; details: for area under the curve (AUC): FIG. 3; for time to occlusion: FIG. 4
Source text: as §2
The effect of cangrelor on platelet occlusion under shear was evaluated by T-TAS®.
Evaluation by T-TAS® using an AR chip. AR chips are characterized by a single channel containing collagen and tissue factor; they can be used to analyze clotting and platelet function.

[6] = system: platelets (platelet rich plasma); assay: Transmission light aggregometry, ADP-induced platelet aggregation in PRP; type: cell-based, human; details: cangrelor 0.5 μM-3.5 μM, 10 μM ADP, FIG. 1
Source text: as §3

platelets = details: cited from earlier work
NOD/SCID mice = assay: Tail-snip bleed model in clopidogrel-treated NOD/SCID mice; type: in vivo, mouse; details: ~3 times the clinical dose of clopidogrel for 5 days (untreated 9 minutes)
Experimental: The mouse was treated with clopidogrel for 5 days. The mouse was anesthetized, the tail end was snipped off followed by thrombosomes being immediately administered. The time from tail snip to tail stop bleeding was recorded by visual inspection.
NOD/SCID mice were treated with ˜ 3 times the clinical dose of clopidogrel for 5 days then assessed in the tail-snip bleed model. The bleed time (min) was extended to 17.8 minutes with clopidogrel treatment verses untreated at 9 minutes (data not shown).

whole blood [7] = assay: T-TAS AR chip occlusion under shear, whole blood; type: cell-based, human; details: whole blood with 6 μM eptifibatide (whole blood alone 8 minutes); FIG. 9
Source text: as §2
The effect of thrombosomes on shortening clotting times while in the presence of eptifibatide was also studied. The ability of thrombosomes to recover occlusion times was studied on the T-TAS® system. The T-TAS® system measures occlusion time under shear forces with collagen and thromboplastin stimulation. The whole blood profile of occlusion and AUC on the AR T-TAS® chip lengthened and decreased, respectively, with eptifibatide. […]

CC(=O)Oc1ccccc1C(=O)O [aspirin, acetylsalicylic acid]
arachidonic acid-induced platelet aggregation ([1]; AA 500 ug/mL, aspirin 100-400 μM, PRP, FIG. 16): completely inhibited
platelet binding and aggregation on collagen under shear (PL chip) (whole blood [2]): largely limited
occlusion on T-TAS flow system (platelet rich plasma [3]; PRP taken from a subject on 81 mg/day aspirin, FIGS. 29A, 29B): failed to occlude
collagen-induced platelet aggregation ([4]; collagen 10 ug/mL, aspirin 100-400 μM, FIG. 16): partially inhibited

CSCCNc1nc(SCCC(F)(F)F)nc2c1ncn2[C@@H]1O[C@H](COP(=O)(O)OP(=O)(O)C(Cl)(Cl)P(=O)(O)O)[C@@H](O)[C@H]1O [cangrelor]
occlusion time (platelet rich plasma [5]; PRP treated with 100 ng/mL cangrelor and ADP (from 19), FIGS. 25A, 25B): 26 min
platelet adhesion and occlusion on AR chip (platelet rich plasma [5]; cangrelor 1 μM combined with ADP 10 μM, PRP, FIG. 2): essentially eliminated
platelet occlusion on AR chip (platelet rich plasma [5]; cangrelor alone 1 μM, PRP, FIG. 2): did not exhibit inhibition on occlusion
area under the curve (AUC) (platelet rich plasma [5]; cangrelor alone, PRP): little effect on AUC value
time to occlusion (platelet rich plasma [5]; cangrelor alone, PRP): little effect on occlusion times
area under the curve (AUC) (platelet rich plasma [5]; cangrelor combined with ADP stimulation, PRP): dropped close to zero
time to occlusion (platelet rich plasma [5]; cangrelor plus ADP stimulation, PRP): inhibited occlusion essentially completely
ADP-induced platelet aggregation (integrated aggregation curve) [6]: complete inhibition

COC(=O)[C@H](c1ccccc1Cl)N1CCc2sccc2C1 [clopidogrel]
time to return of platelet function (platelets; after stopping infusion): approximately 1 hour
bleed time (NOD/SCID mice): 17.8 min

N=C(N)NCCCC[C@@H]1NC(=O)CCSSC[C@@H](C(N)=O)NC(=O)[C@@H]2CCCN2C(=O)[C@H](Cc2c[nH]c3ccccc23)NC(=O)[C@H](CC(=O)O)NC(=O)CNC1=O [eptifibatide] ([Mpa][hArg]GDWPC-NH2; disulfide 1-7)
occlusion time (whole blood [7]): 16 min
time for bleeding time to return to normal after drug stoppage (platelets; after drug stoppage): ≤ 1 h
occlusion time (platelet rich plasma [3]; PRP treated with 9 μM eptifibatide (from 18.43), FIGS. 27A, 27B): over 30 minutes
collagen-induced platelet aggregation ([4]; collagen 10 μg/mL, all eptifibatide concentrations tested, FIG. 8): completely inhibited

CC(C)Cc1ccc(C(C)C(=O)O)cc1 (centres unmarked) [ibuprofen]
aggregation in response to arachidonic acid ([1]; PRP from subject on 800 mg ibuprofen, FIG. 31A): lack of aggregation
occlusion on T-TAS flow system (platelet rich plasma [3]; PRP from subject on 800 mg ibuprofen, addition of ADP, FIG. 31B): abolished occlusion
occlusion on T-TAS flow system (platelet rich plasma [3]; PRP from subject on 800 mg ibuprofen, no ADP, FIG. 31B): demonstrated occlusion

CCCSc1nc(N[C@@H]2C[C@H]2c2ccc(F)c(F)c2)c2nnn([C@@H]3C[C@H](OCCO)[C@@H](O)[C@H]3O)c2n1 [ticagrelor]
time to return of platelet function (platelets; after the last dosage): approximately 72 hours

CCCCS(=O)(=O)N[C@@H](Cc1ccc(OCCCCC2CCNCC2)cc1)C(=O)O [tirofiban]
occlusion time (platelet rich plasma [3]; PRP treated with 100 ng/mL tirofiban (from 18.43), FIGS. 26A, 26B): no occlusion
